Data on 21 compounds can be found in patent publication US20250382297A1, “INHIBITORS OF FGFR2 AND FGFR3 AND USES THEREOF” (Insilico Medicine IP Limited, priority 2022, published 2025).

One may read the IC50 as the point on the concentration scale where inhibition reaches its midpoint.

The target in one assay is FGFR1 (Homo sapiens (Human), UniProt P11362). The assay can be described thus: FGFR biochemical assay (LanthaScreen TR-FRET kinase assay), FGFR1. For orientation: In TR-FRET formats the signal depends on donor and acceptor labels being close together.
FGFR1, sequence (P11362 22-822): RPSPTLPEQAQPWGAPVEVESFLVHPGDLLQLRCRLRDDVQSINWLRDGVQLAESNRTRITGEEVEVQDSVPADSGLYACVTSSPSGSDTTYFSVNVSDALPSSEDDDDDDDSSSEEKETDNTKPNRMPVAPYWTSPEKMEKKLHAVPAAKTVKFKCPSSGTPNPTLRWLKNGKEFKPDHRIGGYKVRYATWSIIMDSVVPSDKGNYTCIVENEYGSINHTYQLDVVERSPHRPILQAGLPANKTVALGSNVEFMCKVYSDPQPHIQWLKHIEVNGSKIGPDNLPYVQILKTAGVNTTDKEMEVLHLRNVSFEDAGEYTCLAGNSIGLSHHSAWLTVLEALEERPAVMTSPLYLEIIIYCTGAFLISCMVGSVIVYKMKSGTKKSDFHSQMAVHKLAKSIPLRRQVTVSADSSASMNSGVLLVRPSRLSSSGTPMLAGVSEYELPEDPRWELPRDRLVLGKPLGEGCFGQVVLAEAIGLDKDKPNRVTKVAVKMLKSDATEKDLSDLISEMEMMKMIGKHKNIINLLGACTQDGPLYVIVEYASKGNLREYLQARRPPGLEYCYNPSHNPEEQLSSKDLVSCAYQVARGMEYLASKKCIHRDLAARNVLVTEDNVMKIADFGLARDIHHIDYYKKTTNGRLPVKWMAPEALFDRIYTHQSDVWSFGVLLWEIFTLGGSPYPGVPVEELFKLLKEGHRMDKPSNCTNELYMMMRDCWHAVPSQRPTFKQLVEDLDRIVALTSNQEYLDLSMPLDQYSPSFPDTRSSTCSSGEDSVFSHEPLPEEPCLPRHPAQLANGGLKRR
Another assay addresses FGFR2 (Homo sapiens (Human), UniProt P21802). Put plainly: FGFR biochemical assay (LanthaScreen TR-FRET kinase assay), FGFR2.
A further assay deals with FGFR3 (Homo sapiens (Human), UniProt P22607). Put plainly: FGFR biochemical assay (LanthaScreen TR-FRET kinase assay), FGFR3.
FGFR3, sequence (P22607 23-806): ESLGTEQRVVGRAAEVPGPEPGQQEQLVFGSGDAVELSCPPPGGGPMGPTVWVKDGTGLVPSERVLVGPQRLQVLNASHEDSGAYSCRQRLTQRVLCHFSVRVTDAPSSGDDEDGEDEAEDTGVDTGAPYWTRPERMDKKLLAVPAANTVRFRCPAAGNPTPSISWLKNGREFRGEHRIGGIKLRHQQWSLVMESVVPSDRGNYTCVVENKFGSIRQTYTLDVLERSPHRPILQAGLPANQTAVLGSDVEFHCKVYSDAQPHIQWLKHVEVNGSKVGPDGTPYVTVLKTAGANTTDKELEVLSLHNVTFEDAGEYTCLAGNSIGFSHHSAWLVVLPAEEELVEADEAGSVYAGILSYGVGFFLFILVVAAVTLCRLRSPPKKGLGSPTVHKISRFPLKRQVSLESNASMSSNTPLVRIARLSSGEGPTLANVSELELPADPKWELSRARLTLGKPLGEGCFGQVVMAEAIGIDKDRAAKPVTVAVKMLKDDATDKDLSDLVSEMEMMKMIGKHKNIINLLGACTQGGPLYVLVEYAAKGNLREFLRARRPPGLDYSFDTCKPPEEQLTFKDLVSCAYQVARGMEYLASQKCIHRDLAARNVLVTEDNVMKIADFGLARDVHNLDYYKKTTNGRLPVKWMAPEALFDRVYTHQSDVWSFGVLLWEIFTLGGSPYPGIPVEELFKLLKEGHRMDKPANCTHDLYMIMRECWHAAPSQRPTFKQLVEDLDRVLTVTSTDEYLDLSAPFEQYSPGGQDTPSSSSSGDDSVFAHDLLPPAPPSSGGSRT
Where [1] appears, read: read-out: FGFR1 IC50, incubation with enzyme at room temperature for 10 minutes before substrate, ATP 28 μM, FGFR1 0.01 nM.
[2] abbreviates: read-out: FGFR2 IC50, incubation with enzyme at room temperature for 10 minutes before substrate, ATP 22 μM, FGFR2 0.01 nM.
Where [3] appears, read: read-out: FGFR3 IC50, incubation with enzyme at room temperature for 10 minutes before substrate, ATP 35 μM, FGFR3 0.1 nM.
Setting [4] is: read-out: FGFR2 IC50, * incubation at room temperature for 60 minutes before addition of substrate solution, ATP 22 μM, FGFR2 0.01 nM.

Read-outs that look alike come from different tables or passages of the source.

FGFR2, sequence (P21802 22-821): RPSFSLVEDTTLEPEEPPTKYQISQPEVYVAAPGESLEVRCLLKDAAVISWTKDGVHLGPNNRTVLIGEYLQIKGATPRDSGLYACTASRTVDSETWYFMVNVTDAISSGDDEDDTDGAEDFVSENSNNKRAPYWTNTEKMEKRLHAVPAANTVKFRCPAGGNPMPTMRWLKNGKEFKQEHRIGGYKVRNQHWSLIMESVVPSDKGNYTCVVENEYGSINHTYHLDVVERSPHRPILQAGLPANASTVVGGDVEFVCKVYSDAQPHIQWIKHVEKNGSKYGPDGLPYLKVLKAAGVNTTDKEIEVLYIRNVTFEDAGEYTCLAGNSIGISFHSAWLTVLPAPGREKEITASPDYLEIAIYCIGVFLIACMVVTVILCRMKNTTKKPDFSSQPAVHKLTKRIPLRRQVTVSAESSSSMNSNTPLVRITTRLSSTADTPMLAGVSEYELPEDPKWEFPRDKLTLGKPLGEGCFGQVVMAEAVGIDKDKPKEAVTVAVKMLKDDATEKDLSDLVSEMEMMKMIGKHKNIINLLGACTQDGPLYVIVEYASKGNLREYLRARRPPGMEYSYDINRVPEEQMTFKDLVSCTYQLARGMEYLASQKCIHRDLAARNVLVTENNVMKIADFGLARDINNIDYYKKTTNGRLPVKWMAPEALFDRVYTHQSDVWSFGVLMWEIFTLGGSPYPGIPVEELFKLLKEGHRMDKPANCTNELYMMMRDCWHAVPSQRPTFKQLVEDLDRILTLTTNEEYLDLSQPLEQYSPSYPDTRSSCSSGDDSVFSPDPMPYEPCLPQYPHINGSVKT
Protocol for FGFR1: (§1) Convert Ratio values to percent inhibition values (Percent inhibition=(max−sample Ratio)/(max−min)*100) where “min” means the Ratio of no enzyme control and “max” means the Ratio of DMSO control. • Data are analyzed and curve fitting is performed by XLFit Excel add-in version 5.4.0.8. The IC50 calculation equation is: Y=Bottom+(Top-Bottom)/(1+ (IC50/X)^HillSlope.
Protocol for FGFR2: as §1
Protocol for FGFR3: as §1

On to `C=CC(=O)Nc1ccc(-c2c(-c3ccc(Oc4cccc(C)n4)cc3)c(C(N)=O)c3cnc(CN(C)C)cn23)cc1` [Example 29, 6-(4-acrylamidophenyl)-3-((dimethylamino)methyl)-7-(4-((6-methylpyridin-2-yl)oxy)phenyl)pyrrolo[1,2-a]pyrazine-8-carboxamide], for which the results for the IC50 on FGFR1 (setting [1]), at FGFR2 and against FGFR3 were above 1000 nM, 10 to 100 nM and 100 to 1000 nM, respectively.
As for `C=CC(=O)Nc1ccc(-c2c(-c3ccc(C(=O)N4CC5(CCC5)C4)cc3)c(C(N)=O)c3cnccn23)cc1` [Example 30, 7-(4-(2-azaspiro[3.3]heptane-2-carbonyl)phenyl)-6-(4-acrylamidophenyl)pyrrolo[1,2-a]pyrazine-8-carboxamide], the half-maximal inhibitory concentration (IC50) on FGFR1 lay in the range of 100 to 1000 nM; on FGFR2, 10 to 100 nM; against FGFR3, 100 to 1000 nM.
Consider `C=CC(=O)Nc1ccc(-c2c(-c3ccc(Oc4cccc(C)n4)c(F)c3)c(C(N)=O)c3cnccn23)cc1` [Example 32, 6-(4-acrylamidophenyl)-7-(3-fluoro-4-((6-methylpyridin-2-yl)oxy)phenyl)pyrrolo[1,2-a]pyrazine-8-carboxamide], for which the IC50 on FGFR1 is 10 to 100 nM; on FGFR2 (setting [2]), below 10 nM; at FGFR3 (setting [3]), below 10 nM.
Take `C=CC(=O)Nc1ccc(-c2c(-c3ccc(Oc4nccc(C)n4)c(F)c3)c(C(N)=O)c3cnccn23)cc1` [Example 33, 6-(4-acrylamidophenyl)-7-(3-fluoro-4-((4-methylpyrimidin-2-yl)oxy)phenyl)pyrrolo[1,2-a]pyrazine-8-carboxamide]: the 50% inhibitory concentration (IC50) was 10 to 100 nM against FGFR1, below 10 nM on FGFR2 (setting [2]) and 10 to 100 nM against FGFR3.
For `C=C(C)C(=O)Nc1ccc(-c2c(-c3ccc(Oc4nccc(C)n4)c(F)c3)c(C(N)=O)c3cnccn23)cc1` [Example 34, 7-(3-fluoro-4-((4-methylpyrimidin-2-yl)oxy)phenyl)-6-(4-methacrylamidophenyl)pyrrolo[1,2-a]pyrazine-8-carboxamide], the IC50 is above 1000 nM on FGFR1 (setting [1]), 100 to 1000 nM against FGFR2 and 100 to 1000 nM against FGFR3.
As for `C=CC(=O)Nc1ccc(-c2c(-c3ccc(Oc4nccc(C)n4)c(F)c3)c(C(N)=O)c3cnc(C)cn23)cc1` [Example 35, 6-(4-acrylamidophenyl)-7-(3-fluoro-4-((4-methylpyrimidin-2-yl)oxy)phenyl)-3-methylpyrrolo[1,2-a]pyrazine-8-carboxamide], the half-inhibitory concentration (IC50) was 10 to 100 nM against FGFR1, below 10 nM on FGFR2 (setting [2]) and below 10 nM on FGFR3 (setting [3]).
Consider `C=CC(=O)Nc1ccc(-c2c(-c3ccc(Oc4nccc(C)n4)c(F)c3)c(C(N)=O)c3cnc(C)cn23)cn1` [Example 36, 6-(6-acrylamidopyridin-3-yl)-7-(3-fluoro-4-((4-methylpyrimidin-2-yl)oxy)phenyl)-3-methylpyrrolo[1,2-a]pyrazine-8-carboxamide], for which the figures for the IC50 on FGFR1, on FGFR2 (setting [2]) and at FGFR3 (setting [3]) were 10 to 100 nM, below 10 nM and below 10 nM, respectively.
Take `C=CC(=O)Nc1ccc(-c2c(-c3ccc(Oc4nccc(C)n4)c(F)c3)c(C(N)=O)c3cnc(C)cn23)cc1C` [Example 37, 6-(4-acrylamido-3-methylphenyl)-7-(3-fluoro-4-((4-methylpyrimidin-2-yl)oxy)phenyl)-3-methylpyrrolo[1,2-a]pyrazine-8-carboxamide]: the concentration for half-maximal inhibition (IC50) is above 1000 nM on FGFR1 (setting [1]), 10 to 100 nM against FGFR2 and 100 to 1000 nM against FGFR3.
Regarding `C=CC(=O)Nc1ccc(-c2c(-c3ccc(Oc4nccc(C)n4)cc3)c(C(N)=O)c3cnc(C)cn23)cc1OC` [Example 38, 6-(4-acrylamido-3-methoxyphenyl)-3-methyl-7-(4-((4-methylpyrimidin-2-yl)oxy)phenyl)pyrrolo[1,2-a]pyrazine-8-carboxamide], the figures for the IC50 against FGFR1, against FGFR2 and against FGFR3 were 100 to 1000 nM, 10 to 100 nM and 10 to 100 nM, respectively.
In the case of `C=C(F)C(=O)Nc1ccc(-c2c(-c3cc(F)c(Oc4nccc(C)n4)c(F)c3)c(C(N)=O)c3cnc(C)cn23)cc1` [Example 48, 7-(3,5-difluoro-4-((4-methylpyrimidin-2-yl)oxy)phenyl)-6-(4-(2-fluoroacrylamido)phenyl)-3-methylpyrrolo[1,2-a]pyrazine-8-carboxamide], the IC50 on FGFR1 lay within 100 to 1000 nM; against FGFR2 it was 10 to 100 nM; on FGFR3, 10 to 100 nM.
Regarding `C=C(F)C(=O)Nc1ccc(-c2c(-c3ccc(Oc4nccc(C)n4)c(F)c3)c(C(N)=O)c3cnc(C)cn23)cn1` [Example 51, 7-(3-fluoro-4-((4-methylpyrimidin-2-yl)oxy)phenyl)-6-(6-(2-fluoroacrylamido)pyridin-3-yl)-3-methylpyrrolo[1,2-a]pyrazine-8-carboxamide], the IC50 is 10 to 100 nM at FGFR1, below 10 nM at FGFR2 (setting [2]) and 10 to 100 nM at FGFR3.
Take `C=C(F)C(=O)Nc1ccc(-c2c(-c3ccc(Oc4cc(C)ccn4)cc3)c(C(N)=O)c3cnc(C)cn23)cc1` [Example 52]: the half-inhibitory concentration (IC50) at FGFR1 (setting [1]) was above 1000 nM; at FGFR2, 100 to 1000 nM; on FGFR3 (setting [3]) it was above 1000 nM.
For `C=C(F)C(=O)Nc1ccc(-c2c(-c3ccc(Oc4nc(C)cc(C)n4)c(F)c3)c(C(N)=O)c3cnc(C)cn23)cc1` [Example 53, 7-(4-((4,6-dimethylpyrimidin-2-yl)oxy)-3-fluorophenyl)-6-(4-(2-fluoroacrylamido)phenyl)-3-methylpyrrolo[1,2-a]pyrazine-8-carboxamide], the half-inhibitory concentration (IC50) is above 1000 nM at FGFR1 (read-out: FGFR1 IC50, * incubation at room temperature for 60 minutes before addition of substrate solution, ATP 28 μM, FGFR1 0.01 nM); 10 to 100 nM against FGFR2; 100 to 1000 nM against FGFR3.
In the case of `C=C(F)C(=O)Nc1ccc(-c2c(-c3ccc(Oc4ncc(F)c(C)n4)c(F)c3)c(C(N)=O)c3cnc(C)cn23)cc1` [Example 54, 7-(3-fluoro-4-((5-fluoro-4-methylpyrimidin-2-yl)oxy)phenyl)-6-(4-(2-fluoroacrylamido)phenyl)-3-methylpyrrolo[1,2-a]pyrazine-8-carboxamide], the IC50 was in the range of 100 to 1000 nM against FGFR1, 10 to 100 nM on FGFR2 and 10 to 100 nM at FGFR3.
As to `C=C(F)C(=O)Nc1ccc(-c2c(-c3ccc(Oc4nccc(C)n4)cc3)c(C(N)=O)c3cnc(C(F)(F)F)cn23)cc1` [Example 56, 6-(4-(2-fluoroacrylamido)phenyl)-7-(4-((4-methylpyrimidin-2-yl)oxy)phenyl)-3-(trifluoromethyl)pyrrolo[1,2-a]pyrazine-8-carboxamide], the half-maximal inhibitory concentration (IC50) at FGFR1 was 100 to 1000 nM; at FGFR2, 10 to 100 nM; at FGFR3, 100 to 1000 nM.
Turning to `C=C(F)C(=O)Nc1ccc(-c2c(-c3ccc(C(=O)NCC4(F)COC4)cc3)c(C(N)=O)c3cnc(C)cn23)cc1` [Example 63, 6-(4-(2-fluoroacrylamido)phenyl)-7-(4-(((3-fluorooxetan-3-yl)methyl)carbamoyl)phenyl)-3-methylpyrrolo[1,2-a]pyrazine-8-carboxamide], the results for the IC50 against FGFR1, on FGFR2 (setting [4]) and on FGFR3 were 10 to 100 nM, below 10 nM and 10 to 100 nM, respectively.
Regarding `C=CC(=O)Nc1ccc(-c2c(-c3ccc(C(=O)NCC4(F)COC4)cc3)c(C(N)=O)c3cnc(C)cn23)cc1` [Example 64, 6-(4-acrylamidophenyl)-7-(4-(((3-fluorooxetan-3-yl)methyl)carbamoyl)phenyl)-3-methylpyrrolo[1,2-a]pyrazine-8-carboxamide], the half-inhibitory concentration (IC50) on FGFR1 is 10 to 100 nM; on FGFR2 (setting [2]), below 10 nM; at FGFR3 (setting [3]), below 10 nM.
Consider `CC#CC(=O)Nc1ccc(-c2c(-c3ccc(C(=O)NCC4(F)COC4)cc3)c(C(N)=O)c3cnc(C)cn23)cc1` [Example 65, 6-(4-(but-2-ynamido)phenyl)-7-(4-(((3-fluorooxetan-3-yl)methyl)carbamoyl)phenyl)-3-methylpyrrolo[1,2-a]pyrazine-8-carboxamide], for which the figures for the IC50 on FGFR1, against FGFR2 and at FGFR3 were 100 to 1000 nM, 10 to 100 nM and 100 to 1000 nM, respectively.
As to `C=CC(=O)N1CC2(CC=C(c3c(-c4ccc(Oc5nccc(C)n5)cc4)c(C(N)=O)c4cnc(C)cn34)CC2)C1` [Example 70, 6-(2-acryloyl-2-azaspiro[3.5]non-6-en-7-yl)-3-methyl-7-(4-((4-methylpyrimidin-2-yl)oxy)phenyl)pyrrolo[1,2-a]pyrazine-8-carboxamide], the IC50 on FGFR1, on FGFR2 and against FGFR3 was 100 to 1000 nM each time.
Turning to `C=C(F)C(=O)N1CCc2cc(-c3c(-c4ccc(Oc5nccc(C)n5)c(F)c4)c(C(N)=O)c4cnc(C)cn34)ccc21` [Example 72, 7-(3-fluoro-4-((4-methylpyrimidin-2-yl)oxy)phenyl)-6-(1-(2-fluoroacryloyl)indolin-5-yl)-3-methylpyrrolo[1,2-a]pyrazine-8-carboxamide], the IC50 is 100 to 1000 nM at FGFR1, below 10 nM at FGFR2 (setting [4]) and 10 to 100 nM at FGFR3.
On to `C=C(F)C(=O)N1CCc2cc(-c3c(-c4ccc(Oc5nccc(C)n5)c(F)c4)c(C(N)=O)c4cnc(C)cn34)c(F)cc21` [Example 73, 6-(6-fluoro-1-(2-fluoroacryloyl)indolin-5-yl)-7-(3-fluoro-4-((4-methylpyrimidin-2-yl)oxy)phenyl)-3-methylpyrrolo[1,2-a]pyrazine-8-carboxamide], for which the IC50 against FGFR1 is 10 to 100 nM; at FGFR2 (setting [4]), below 10 nM; at FGFR3 (read-out: FGFR3 IC50, * incubation at room temperature for 60 minutes before addition of substrate solution, ATP 35 μM, FGFR3 0.1 nM), below 10 nM.
